Consider two molecules from patent US20100160432A1, “Curative drug for neurodegenerative diseases” (priority 2007, published 2010).

Data set [1] relates to PC12 cells. The data set can be described thus: Cytoprotection against linoleic acid hydroperoxide (LA-OOH) cell disorder, PC12 cells, methylene blue dye uptake. The data set is classed as cell-based, rat. The note with it: for Protection Rate (%) / Survival Rate (%): LA-OOH 35 μM, about 20 h; for protection rate of PC12 cells (up to) / survival rate of PC12 cells (up to): highest value over the doses tested. As to the method:
(§1) Of the hydroquinone derivatives expressed in the aforesaid Formula 1, 2,3,5-trimethyl-hydroquinone-1-hexylether (Compound 1) was examined in comparison with vitamin E with respect to the activity of inhibiting toxicity of lipid peroxide to nerve cells. PC12 cells as a cell culture model of for human neuroblastoma-derived SH-SY5Y and rat pheochromocytoma cells were cultivated by the law of the art. A culture media was prepared in effect by adding FCS (fetal calf serum) to Dulbecco's Eagle medium (DMEM) and used further with the addition of NaHCO3 (3.7 g/L), penicillin G (100 U/mL) and Streptomycin ([…]). A cultivation was performed by seeding 6×10^4 SH-SY5Y cells and 4×10^4 PC12 cells in a CO2 incubator at 37° C. using a microplate with 24 macroscopic pores. After 48 hours, the aforesaid Compound 1 or vitamin E was added thereto. Then after about 30 minutes, 70 μM of linoleic acid hydroperoxide were added thereto for the SH-SY5Y cells and 35 μM of the same were added for PC12 cells. After cultivation for about 20 hours, the number of surviving cells was measured.
(§2) The measurement of the surviving cells was made by a Methylene blue dye uptake method. To be more specific, the cells were rinsed twice with PBS (phosphate buffered saline free from Mg and Ca), and then, fixated with 10% formalin for 5 minutes. Further, the cells were rinsed three times with distilled water, stained with 0.05% methylene blue solution for 60 minutes, and rinsed three times with distilled water. Then, 20 minutes after adding 0.33N HCl thereto, the absorbance of the cells was measured at 665 nm. The survival rate and protection rate of the cells were calculated on the basis of the measured result by the following equation.
(§3) Cell survival rate (%)=[absorbance of treated cells with testing additives]/[absorbance of non-treated cells]×100
(§4) Protection rate (%)={1−(100−[survival rate of treated cells with testing additives])/(100−[survival rate of cells with no additives])}×100

Data set [2] has as its system NO production. The note with it: compared with vitamin E; cited from earlier work.
The subject of data set [3] is SH-SY5Y cells. The data set can be described thus: Cytoprotection against linoleic acid hydroperoxide (LA-OOH) cell disorder, SH-SY5Y cells, methylene blue dye uptake. Format: cell-based, human. The note with it: for Protection Rate (%) / Survival Rate (%): SH-SY5Y cells, LA-OOH 70 μM, about 20 h. As to the method:
as §1, §2, §3, §4

The conditions of data set [4]: compared with vitamin E, cited from earlier work.

Read-outs that look alike come from different tables or passages of the source.

As for `CCCCCCOc1cc(C)c(O)c(C)c1C` [Compound 1, 2,3,5-trimethyl-hydroquinone-1-hexylether], the “Protection Rate (%)” value in data set [1] (dosage 0.1 μM) stood at 21.5%; in data set [1] (dosage 0.5 μM) it was 80.6%; in data set [1] (dosage 1.0 μM), 88.4%; in data set [1] (dosage 5.0 μM), 88.9%; in data set [3] (dosage 0.5 μM), 14.8%; in data set [3] (dosage 1.0 μM), 22.1%. Also, the “Protection Rate (%)” value in data set [3] (dosage 5.0 μM) is listed as 38.3%; in data set [3] (dosage 10.0 μM) it was 33.5%. Besides, the “Survival Rate (%)” value in data set [1] (dosage 0.1 μM) worked out at 45.68%; in data set [1] (dosage 0.5 μM) it was 86.57%; in data set [1] (dosage 1.0 μM) it was 91.96%; in data set [1] (dosage 5.0 μM), 92.31%; in data set [3] (dosage 0.5 μM), 83.41%; in data set [3] (dosage 1.0 μM), 84.83%. Moreover, the entries for the “Survival Rate (%)” value in data set [3] (dosage 5.0 μM) and in data set [3] (dosage 10.0 μM) were 87.97% and 87.04%, respectively. Moreover, the “protection rate of PC12 cells (up to)” value in data set [1] is on record as “around 90%”. Besides, the “survival rate of PC12 cells (up to)” value in data set [1] is listed as “around 90%”. In data set [2], the “NO-production inhibitory activity relative to vitamin E” value is on record as 500 times as strong as vitamin E. Besides, the “toxicity in comparison with vitamin E” value in data set [3] (SH-SY5Y cells and PC12 cells, from Table 1 and Table 2) is reported as “lower toxicity”. The “antioxidative properties relative to vitamin E” value in data set [4] was “double that of vitamin E”; in data set [4] (listed as 2,3,5-trimethyl-hydroquinone-1-hexylether), “twice as strong as vitamin E”.

On to Vitamin E [reference compound], for which the “Protection Rate (%)” value in data set [1] (dosage 0.1 μM) is given as 6.8%; in data set [1] (dosage 0.5 μM), 4.9%; in data set [1] (dosage 1.0 μM) it was 4.8%; in data set [1] (dosage 5.0 μM) it was 14.8%; in data set [3] (dosage 0.5 μM), 14.5%; in data set [3] (dosage 1.0 μM) it was −6.3%. Also, the entries for the “Protection Rate (%)” value in data set [3] (dosage 5.0 μM) and in data set [3] (dosage 10.0 μM) were −6.2% and 4.3%, respectively. Further, the “Survival Rate (%)” value in data set [1] (dosage 0.1 μM) worked out at 37.16%; in data set [1] (dosage 0.5 μM), 35.88%; in data set [1] (dosage 1.0 μM), 35.85%; in data set [1] (dosage 5.0 μM), 42.57%; in data set [3] (dosage 0.5 μM), 83.72%; in data set [3] (dosage 1.0 μM), 79.77%. Further, the “Survival Rate (%)” value is listed as 79.78% in data set [3] (dosage 5.0 μM) and 81.78% in data set [3] (dosage 10.0 μM). The “protection rate of PC12 cells (up to)” value in data set [1] is “around 15%”. Besides, the “survival rate of PC12 cells (up to)” value in data set [1] is “about 42%”.
